{"source": "patent US6924278B2", "about": "“Aroyl-piperazine derivatives, their preparation and their use as tachykinin antagonists” (Fujisawa Pharmaceutical Co., Ltd., priority 1997, dated 2005)", "key": {"emesis in the ferret": {"system": "emesis in the ferret", "assay": "Emesis in the ferret (copper sulfate-induced retching and vomiting)", "type": "in vivo", "conditions": "dose of 1.0 mg/kg i.v., 30 min before intra-gastric copper sulfate (40 mg/kg/ml), observed for the next 30 min", "protocol": "Individually housed adult male ferrets (Marshall Farms, 1.4 to 2.2 kg) were given an i.v. injection of a solution contatining a test compound. 30 Min later the emetic responses (retching and vomiting) were induced by administration of intra-gastric copper sulfate (40 mg/kg/ml) and observed for the next 30 min. The timing and number of retches and vomits observed were recorded for each animal. An individual animal was tested with at least 10 days between experiments."}, "h-NK1 receptors": {"target": "T1, h-NK1 receptors (Homo sapiens, UniProt P25103)", "T1 construct": "expressed in transfected cells; host or cells: CHO cells (permanent expression), crude cell membranes", "T1 sequence (P25103 whole entry)": "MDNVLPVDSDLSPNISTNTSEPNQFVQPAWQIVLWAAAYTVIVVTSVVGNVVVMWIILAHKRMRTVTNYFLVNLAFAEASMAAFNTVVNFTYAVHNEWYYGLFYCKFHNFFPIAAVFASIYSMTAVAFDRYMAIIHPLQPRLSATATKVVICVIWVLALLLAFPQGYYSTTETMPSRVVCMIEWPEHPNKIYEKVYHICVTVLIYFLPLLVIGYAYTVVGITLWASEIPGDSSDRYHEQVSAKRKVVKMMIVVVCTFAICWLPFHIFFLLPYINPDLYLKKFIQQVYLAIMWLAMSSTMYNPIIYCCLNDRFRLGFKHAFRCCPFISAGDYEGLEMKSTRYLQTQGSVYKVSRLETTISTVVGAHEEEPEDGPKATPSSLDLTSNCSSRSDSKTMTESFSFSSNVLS", "assay": "Evaluation of NK1 antagonist transport efficiency to the central nervous system using a h-NK1 receptor binding assay (brain extract after i.v. dosing of rats)", "conditions": "5 min; compound extracted from brain of male SD rats 5 min after i.v. injection at the dose of 1 mg/kg; CHO cell membranes expressing h-NK1; read-out: inhibition rate of 125I-BH-Substance P binding to h-NK1 receptors", "protocol": "A. Evaluation of NK1 Antagonist Transport Efficiency to the Cental Nervous System using a h-NK1 Receptor Binding Assay\n(1) Administration of Test Compound and Extraction of the Compound from Brain\nMale SD rats were given an i.v. injection of a solution containing a test compound (1 mg/kg). 5 Min later the animals were anesthetized by ether, bled and perfused through the aorta ascendens with 20 ml of saline. The brain was rapidly removed, weighed and homogenized in 4 vol. ice-cold distilled water by using Polytoron (KINEMATICA). To extract the test compound, 500 μl of the homogenate, 100 μl of methanol, 500 μl of 0.1 N NaOH and 4 ml of ethyl acetate were mixed by shaking for 10 min at room temperature. The organic phase (2.5 ml) was recovered by centrifugation at 3,000 rpm for 10 min, dried and dissolved in dimethyl sulfoxide.\n(2) h-NK1 Receptor Binding Assay\n(a) Crude CHO Cell Membrane Preparation\nCHO cells permanently expressing h-NK1 receptors were harvested and homogenized with a Dounce homogenizer at 4° C. in a buffer (0.25 M sucrose, 25 mM Tris-HCl (pH 7.4), 10 mM MgCl2, 1 mM EDTA, 5 μg/ml p-APMSF). The homogenate was centrifuged (500×g, 10 min), and the pellet was resuspended in the same buffer, homogenized, and centrifuged. The two supernatants were combined and centrifuged (100,000×g, 1 hour). The crude cell membranes thus isolated were resuspended in a buffer (25 mM Tris-HCl (pH 7.4), 10 mM MgCl2, 1 mM. EDTA, 5 μg/ml p-APMSF) and stored at −80° C. until use.\n(b) ^125I-BH-Substance P Binding to the Prepared Membrane\nCell membranes (6 μg/ml) were incubated with ^125I-BH-Substance P (0.1 nM) with or without the extracted compounds in 0.25 ml of a medium (50 mM Tris-HCl (pH 7.4), 5 mM MnCl2, 20 μg/ml chymostatin, 40 μg/ml bacitracin, 4 μg/ml leupeptin, 5 μg/ml p-APMSF, 200 μg/ml BSA) at 22° C. for 90 min. At the end of the incubation period, the contents were quickly filtered through a Blue Mat 11740 filter (pretreated with 0.1% polyethylenimine for 3 hours prior to use) by using SKATRON Cell Harvester. The filter was then washed with a washing buffer (50 mM Tris-HCl (pH 7.4), 5 mM MnCl2). The radioactivity was counted by using an auto gamma counter (Packard RIASTAR 5420A). All data presented are specific binding defined as that displaceable by 3 μM unlabeled Substance P."}}}
{"smiles": "Cl.Cl.O=C(c1cc(C(F)(F)F)cc(C(F)(F)F)c1)N1CCN(CCCc2ccccn2)C[C@H]1Cc1c[nH]c2ccccc12", "note": "[4-(2), (2R)-1-[3,5-Bis(trifluoromethyl)benzoyl]-2-[(1H-indol-3-yl)methyl]-4-[3-(2-pyridyl)propyl]piperazine dihydrochloride]", "values": [{"measurement": "melting point", "value": "80 to 100", "unit": "°C"}, {"measurement": "inhibition rate of emesis in the ferret", "setting": "emesis in the ferret", "value": 100, "unit": "%"}]}
{"smiles": "Cc1ccc(C[C@@H]2CN(CC#CCN3CCOCC3(C)C)CCN2C(=O)c2cc([N+](=O)[O-])cc(C(F)(F)F)c2)cc1C.Cl.Cl", "note": "[90-(6), (2R)-2-(3,4-Dimethylbenzyl)-4-[4-(3,3-dimethylmorpholino)-2-butynyl]-1-[3-nitro-5-(trifluoromethyl)benzoyl]piperazine dihydrochloride]", "values": [{"measurement": "melting point", "value": "157 to 200", "unit": "°C"}, {"measurement": "inhibition at 1 mg/kg", "setting": "h-NK1 receptors", "value": "> 80", "unit": "%"}]}
{"smiles": "Cl.Cl.O=C(c1cc(C(F)(F)F)cc(C(F)(F)F)c1)N1CCN(C/C=C\\c2cccnc2)C[C@H]1Cc1c[nH]c2ccccc12", "note": "[Example 5-(2), (2R)-1-[3,5-Bis(trifluoromethyl)benzoyl]-2-[(1H-indol-3-yl)methyl]-4-[(Z)-3-(3-pyridyl)-2-propenyl]piperazine dihydrochloride]", "values": [{"measurement": "melting point", "value": "165 to 177", "unit": "°C"}, {"measurement": "inhibition at 1 mg/kg", "setting": "h-NK1 receptors", "value": "> 80", "unit": "%"}]}
{"smiles": "Cc1ccc(C[C@@H]2CN(CC#CCN3CCOCC3)CCN2C(=O)c2cc(Cl)cc(Cl)c2)cc1C.Cl.Cl", "note": "[Example 15, (2R)-1-(3,5-dichlorobenzoyl)-2-(3,4-dimethylbenzyl)-4-(4-morpholino-2-butynyl)piperazine dihydrochloride]", "values": [{"measurement": "melting point", "value": "175 °C (dec.)"}, {"measurement": "inhibition at 1 mg/kg", "setting": "h-NK1 receptors", "value": "> 80", "unit": "%"}]}
{"smiles": "Cc1ccc(C[C@@H]2CN(CCCNN3CCOCC3)CCN2C(=O)c2cc(Cl)cc(Cl)c2)cc1C.Cl.Cl", "note": "[Example 17, (2R)-1-(3,5-dichlorobenzoyl)-2-(3,4-dimethylbenzyl)-4-(N-morpholino-3-aminopropyl)piperazine dihydrochloride]", "values": [{"measurement": "melting point", "value": "71 °C (dec.)"}, {"measurement": "inhibition at 1 mg/kg", "setting": "h-NK1 receptors", "value": "> 80", "unit": "%"}]}
{"smiles": "Cc1ccc(C[C@@H]2CN(CCCc3cn(C)cn3)CCN2C(=O)c2cc(C(F)(F)F)cc(C(F)(F)F)c2)cc1C.Cl.Cl", "note": "[Example 18, (2R)-1-[3,5-bis(trifluoromethyl)benzoyl]-2-(3,4-dimethylbenzyl)-4-[3-(1-methyl-1H-imidazol-4-yl)propyl]piperazine dihydrochloride]", "values": [{"measurement": "melting point", "value": "91 °C (dec.)"}, {"measurement": "inhibition at 1 mg/kg", "setting": "h-NK1 receptors", "value": "> 80", "unit": "%"}]}
{"smiles": "Cc1ccc(C[C@@H]2CN(CCCN(C=O)N3CCOCC3)CCN2C(=O)c2cc(C(F)(F)F)cc(C(F)(F)F)c2)cc1C.Cl", "note": "[Example 26]", "values": [{"measurement": "inhibition rate of emesis in the ferret", "setting": "emesis in the ferret", "value": 100, "unit": "%"}]}
{"smiles": "Cc1ccc(C[C@@H]2CN(Cc3cnn(CCN4CCOCC4)c3)CCN2C(=O)c2cc(C(F)(F)F)cc(C(F)(F)F)c2)cc1C.Cl.Cl", "note": "[Example 29, (2R)-1-[3,5-bis(trifluoromethyl)benzoyl]-2-(3,4-dimethylbenzyl)-4-[[1-(2-morpholinoethyl)-1H-pyrazol-4-yl]methyl]piperazine dihydrochloride]", "values": [{"measurement": "melting point", "value": "115 to 116", "unit": "°C"}, {"measurement": "inhibition rate of emesis in the ferret", "setting": "emesis in the ferret", "value": 100, "unit": "%"}, {"measurement": "inhibition at 1 mg/kg", "setting": "h-NK1 receptors", "value": "> 80", "unit": "%"}]}
{"smiles": "CN(CCN1CCN(C(=O)c2cc(C(F)(F)F)cc(C(F)(F)F)c2)[C@H](Cc2ccc3ccccc3c2)C1)Cc1cccnc1.Cl.Cl", "note": "[Example 40]", "values": [{"measurement": "inhibition rate of emesis in the ferret", "setting": "emesis in the ferret", "value": 100, "unit": "%"}]}
{"smiles": "CN(CCN1CCN(C(=O)c2cc(C(F)(F)F)cc(C(F)(F)F)c2)[C@H](Cc2c[nH]c3ccccc23)C1)Cc1cccnc1.Cl.Cl", "note": "[Example 41, (2R)-1-[3,5-Bis(trifluoromethyl)benzoyl]-2-[(1H-indol-3-yl)methyl]-4-[2-[N-methyl-N-(3-pyridylmethyl)amino]ethyl]piperazine dihydrochloride]", "values": [{"measurement": "inhibition rate of emesis in the ferret", "setting": "emesis in the ferret", "value": 100, "unit": "%"}]}
{"smiles": "Cc1ccc(C[C@@H]2CN(C/C=C/[C@@H]3COCCN3)CCN2C(=O)c2cc(C(F)(F)F)cc(C(F)(F)F)c2)cc1C.Cl.Cl", "note": "[Example 45, (2R)-1-[3,5-bis(trifluoromethyl)benzoyl]-2-(3,4-dimethylbenzyl)-4-[(2E)-3-[(3R)-3-morpholinyl]-2-propenyl]piperazine dihydrochloride]", "values": [{"measurement": "melting point", "value": "225 to 232", "unit": "°C"}, {"measurement": "inhibition at 1 mg/kg", "setting": "h-NK1 receptors", "value": "> 80", "unit": "%"}]}
{"smiles": "Cc1ccc(C[C@@H]2CN(CC#C[C@@H]3COCCN3)CCN2C(=O)c2cc(C(F)(F)F)cc(C(F)(F)F)c2)cc1C.Cl.Cl", "note": "[Example 68, (2R)-1-[3,5-bis(trifluoromethyl)benzoyl]-2-(3,4-dimethylbenzyl)-4-[3-[(3R)-morpholin-3-yl]-2-propynyl]piperazine dihydrochloride]", "values": [{"measurement": "melting point", "value": "190 to 191", "unit": "°C"}, {"measurement": "inhibition at 1 mg/kg", "setting": "h-NK1 receptors", "value": "> 80", "unit": "%"}]}
